Data: publication PMC8626775, “Anti-schistosomal activities of quinoxaline-containing compounds: From hit identification to lead optimisation” (European Journal of Medicinal Chemistry, 2021)
Read-outs that look alike come from different tables or passages of the source.

Tests used:
S. mansoni schistosomula = S. mansoni schistosomula high-throughput phenotype and motility screen (Roboworm), 72 h; assay type: cell-based, Schistosoma mansoni; conditions: for EC50: Schistosoma mansoni; for Effect on phenotype and motility of S. mansoni schistosomula: primary tested concentrations 10 and 50 μM
Method: Cercariae derived from the NMRI ([…]) Puerto Rican strain (PR-1) of S. mansoni were shed from two Biomphalaria glabrata strains, the NMRI albino and pigmented outbred strains, under intensified lighting conditions (1 h of incubation at 26 °C). Cercariae were then mechanically transformed into schistosomula as previously described.
High-throughput screening (HTS) of selected compounds was conducted as previously described. Briefly, newly transformed schistosomula were distributed in a 384-well tissue culture plate (PerkinElmer, cat 6007460, seeding density of 120 parasites/well). Each compound (at a single concentration or two-fold titrations) was transferred into individual wells alongside the positive and negative controls (AUR at 10 μM final concentration in 0.625% DMSO and 0.625% DMSO, respectively). Schistosomula/compound co-cultures were then incubated at 37 °C for 72 h in a humidified atmosphere containing 5% CO2. Following the co-culture period, automatic assessment of compound-induced schistosomula motility and phenotypic changes were conducted with the high-content imaging platform Roboworm using the image analysis model previously described by Paveley et al..

S. mansoni adult worms = experiment: S. mansoni adult worm motility screen (WormassayGP2), 72 h; assay type: cell-based, Schistosoma mansoni; conditions: for EC50: Schistosoma mansoni
Source text: Mice (Mus musculus HsdOLa:TO - Tuck Ordinary; Envigo, UK) were used for the mammalian-specific propagation of the S. mansoni life cycle. Experimental animals were infected with 4000 or 180 S. mansoni cercariae/mouse and perfused three- or seven-weeks post-infection to obtain S. mansoni juvenile or adult worms, respectively. Preparation steps following perfusion have been described previously. Briefly, the parasite material was washed three times with pre-warmed adult worm media (DMEM (Gibco, Paisley, UK) supplemented with 10% (v/v) Fetal Calf Serum (FCS, Gibco, Paisley, UK), 1% (v/v) L-glutamine (Gibco, Paisley, UK) and an antibiotic mixture (150 Units/ml penicillin and 150 μg/ml streptomycin; Gibco, UK)) to remove residual host contamination and incubated in a humidified environment containing 5% CO2 at 37 °C for at least 1 h.
For the evaluation of anti-schistosomal activity on the adult stage of the parasite, 7-wk old worms were transferred into 48 well tissue culture plates (1–3 worm pairs/well, in duplicate). […] DMSO (0.5%) and praziquantel (10 μM in 0.5% DMSO) were also included as negative and positive control treatments. Treated adult worms were incubated for 72 h in a humidified environment containing 5% CO2 at 37 °C. Parasite motility after compound treatment was assessed by a digital image processing-based system (WormassayGP2), modified after Wormassay. Following compound-parasite co-incubation, eggs were collected, fixed in formalin (10% v/v formaldehyde) and enumerated aiming to collect further information on any compound-induced effects on parasite fecundity and IVLE production.

[1] = 72 h, Table 2, motility, 72 h, three replicate titrations (0.313–10 μM), read-out: Activity on schistosomula (EC50, μM - 72 h) M
[2] = 72 h, Table 2, phenotype, 72 h, three replicate titrations (0.313–10 μM), read-out: Activity on schistosomula (EC50, μM - 72 h) P
[3] = 72 h, Table S7, motility, 95% CI in brackets, read-out: Activity on schistosomula (EC50, µM - 72 h) (95% CI) M
[4] = 72 h, Table S7, phenotype, 95% CI in brackets, read-out: Activity on schistosomula (EC50, µM - 72 h) (95% CI) P
[5] = Table 3, read-out: Anti-schistosomal activity EC50 (μM) Schistosomula Motility
[6] = Table 3, read-out: Anti-schistosomal activity EC50 (μM) Schistosomula Phenotype
[7] = 72 h, Table 1, 72 h, two dose response titrations (0.313–10 μM), 95% CI in brackets, read-out: Activity on schistosomula (EC50, μM - 72 h) Motility
[8] = 72 h, Table 1, 72 h, two dose response titrations (0.313–10 μM), 95% CI in brackets, read-out: Activity on schistosomula (EC50, μM - 72 h) Phenotype
[9] = 72 h, Table 1, mean of phenotype and motility EC50, 72 h, read-out: Activity on schistosomula (EC50, μM - 72 h) Average
[10] = Table 5, Series C, read-out: Anti-schistosomal activity EC50 Schistosomula (μM) Motility
[11] = Table 5, Series C, read-out: Anti-schistosomal activity EC50 Schistosomula (μM) Phenotype
[12] = Fig. S3, average schistosomula EC50, read-out: EC50 (Fig. S3, anti-schistosomula activity)

Structure (SMILES)	EC50 (S. mansoni schistosomula; [1]) [µM]	EC50 (S. mansoni schistosomula; [2]) [µM]	EC50 (S. mansoni schistosomula; [3]) [µM]	EC50 (S. mansoni schistosomula; [4]) [µM]	EC50 (S. mansoni schistosomula; [7]) [µM]	EC50 (S. mansoni schistosomula; [8]) [µM]	Effect on phenotype and motility of S. mansoni schistosomula (S. mansoni schistosomula; 72 h)	also measured
O=[N+]([O-])c1ccc2nc(O)c(O)nc2c1 [6-nitro-2,3-dihydroxy-quinoxaline]	> 50	> 50	> 50	> 50	–	–	–	EC50 (S. mansoni schistosomula; [5]): > 50 µM; EC50 (S. mansoni schistosomula; [6]): > 50 µM
FC(F)(F)c1cccc(Nc2nc3ccccc3nc2Nc2cccc(C(F)(F)F)c2)c1 [Compound 11]	–	–	–	–	1.12	1.38	–	Effect on adult worm motility at 3.15 μM (S. mansoni adult worms; 3.15 μM, lowest concentration tested): complete cessation of worm mobility; Effect on adult worm motility at 12.5 and 6.25 μM (S. mansoni adult worms): particularly active; Activity on schistosomula in the primary screen at 10 μM (S. mansoni schistosomula; 72 h): retained activity; EC50 (S. mansoni schistosomula; [9]): 1.25 µM
Clc1ccc(Nc2nc3ccc(N4CCCC4)cc3nc2Nc2ccc(Cl)c(Cl)c2)cc1Cl [Compound 22b, N^2, N^3-bis(3,4-dichlorophenyl)-6-(pyrrolidin-1-yl)quinoxaline-2,3-diamine]	> 10	> 10	> 10	> 10	–	–	–	Activity on schistosomula in the primary screen at 50 μM (S. mansoni schistosomula; 50 μM, 72 h): affected schistosomula motility, but not phenotype; EC50 (S. mansoni schistosomula; [10]): > 10 µM; EC50 (S. mansoni schistosomula; [11]): > 10 µM
COc1ccc2nc(Nc3ccccc3)c(Nc3ccccc3)nc2c1 [Compound 6]	–	–	–	–	> 10	> 10	weak effect	EC50 (S. mansoni schistosomula; [12]): > 10 µM
FC(F)(F)c1cccc(Oc2nc3ccccc3nc2Oc2cccc(C(F)(F)F)c2)c1 [Compound 12]	–	–	–	–	> 10	> 10	weak effect	EC50 (S. mansoni schistosomula; [12]): > 10 µM
O=[N+]([O-])c1ccc2nc(NCCc3ccccc3)c(NCCc3ccccc3)nc2c1 [Compound 37, 6-nitro-N2, N3-diphenethylquinoxaline-2,3-diamine]	1.47	2.2	–	–	–	–	–	EC50 (S. mansoni adult worms; Table 3, read-out: Anti-schistosomal activity EC50 (μM) Adult Motility): 0.195 µM; EC50 (S. mansoni adult worms; Table 2, 72 h, titrations 0.0095–5 μM, WormassayGP2, read-out: Activity on adult worms (EC50, μM - 72 h) Motility): 0.195 µM; EC50 (S. mansoni schistosomula; 72 h, Table 2, average of phenotype and motility EC50, 72 h, read-out: Activity on schistosomula (EC50, μM - 72 h) Average): 1.84 µM; EC50 (S. mansoni schistosomula; [5]): 1.47 µM; EC50 (S. mansoni schistosomula; [6]): 2.2 µM
Cc1ccc(Sc2nc3ccccc3nc2Sc2ccc(C)cc2)cc1 [Compound 14]	–	–	–	–	> 50	> 50	did not have any effect	EC50 (S. mansoni schistosomula; [12]): > 50 µM
COC(=O)c1ccc(Nc2nc3ccc([N+](=O)[O-])cc3nc2Nc2ccc(C(=O)OC)cc2)cc1 [Compound 23]	–	–	–	–	1.44	1.23	–	Effect on adult worm motility at 12.5 and 6.25 μM (S. mansoni adult worms): particularly active; Activity on schistosomula in the primary screen at 10 μM (S. mansoni schistosomula; 72 h): retained activity; EC50 (S. mansoni schistosomula; [9]): 1.33 µM
O=C(Nc1ccc2nc(Nc3ccc(Cl)c(Cl)c3)c(Nc3ccc(Cl)c(Cl)c3)nc2c1)c1cccc(C(F)(F)F)c1 [Compound 22g, N-(2,3-bis((3,4-dichlorophenyl)amino)quinoxalin-6-yl)-3-(trifluoromethyl)benzamide]	> 50	> 50	> 50	> 50	–	–	–	EC50 (S. mansoni schistosomula; [10]): > 50 µM; EC50 (S. mansoni schistosomula; [11]): > 50 µM
Cc1cccc(Nc2nc3ccc([N+](=O)[O-])cc3nc2Nc2cccc(C)c2C)c1C [Compound 27, N2, N3-bis(2,3-dimethylphenyl)-6-nitroquinoxaline-2,3-diamine]	> 10	> 10	> 10	> 10	–	–	–	EC50 (S. mansoni schistosomula; 72 h, read-out: EC50 on schistosomula (bounds and ranges given)): > 10 µM; EC50 (S. mansoni schistosomula; Table 4, Series A, read-out: Anti-schistosomal activity EC50 Schistosomula (μM) Motility): > 10 µM; EC50 (S. mansoni schistosomula; Table 4, Series A, read-out: Anti-schistosomal activity EC50 Schistosomula (μM) Phenotype): > 10 µM
Cc1ccc2[nH]c(=Nc3ccccc3C)c(=Nc3ccccc3C)[nH]c2c1 [Compound 5]	–	–	–	–	> 10	> 10	weak effect	–
O=[N+]([O-])c1ccc2nc(Cl)c(Cl)nc2c1 [2,3-dichloro-6-nitroquinoxaline]	> 10	> 10	> 10	> 10	–	–	–	EC50 (S. mansoni schistosomula; [5]): > 10 µM; EC50 (S. mansoni schistosomula; [6]): > 10 µM
CCOc1ccc(Nc2nc3ccccc3nc2Nc2ccc(OCC)cc2)cc1 [Compound 9]	–	–	–	–	4.87	5.92	–	Activity on schistosomula in the primary screen at 10 μM (S. mansoni schistosomula; 72 h): retained activity; EC50 (S. mansoni schistosomula; [9]): 5.39 µM
